Laboratory results reported in PubChem BioAssay AID1963828 (Molecular Pharmacology Branch, DTP, NCI, 2024).

System: 991263-137-R1-J2-PDC complex spheroid viability
Experiment: Anticancer human tumor 991263-137-R1-J2-PDC patient-derived colon adenocarcinoma cell line growth inhibition [POLQ]
Details: for IC50: curve of first compound; for viability, T/C: stronger effect = lower value
Procedure, shortened: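 PDC + HUVEC + MSC complex spheroids; POLQ inhibitors ± partner drugs; top conc. at/near clinical Cmax, else 10 microM (SN-38 1 microM), half-log dilutions; 37 degrees C, 5% CO2.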

[1] = second compound 0.0316 µM, first compound 0.00316 µM
[2] = second compound 0.0316 µM, first compound 0.01 µM
[3] = second compound 0.0316 µM, first compound 0.0316 µM
[4] = second compound 0.0316 µM, first compound 0.1 µM
[5] = second compound 0.1 µM, first compound 0.00316 µM
[6] = second compound 0.1 µM, first compound 0.01 µM
[7] = second compound 0.1 µM, first compound 0.0316 µM
[8] = second compound 0.1 µM, first compound 0.1 µM
[9] = second compound 0.316 µM, first compound 0.00316 µM
[10] = second compound 0.316 µM, first compound 0.01 µM
[11] = second compound 0.316 µM, first compound 0.0316 µM
[12] = second compound 0.316 µM, first compound 0.1 µM
[13] = second compound 1 µM, first compound 0.00316 µM
[14] = second compound 1 µM, first compound 0.01 µM
[15] = second compound 1 µM, first compound 0.0316 µM
[16] = second compound 1 µM, first compound 0.1 µM
[17] = second compound 3.16 µM, first compound 0.00316 µM
[18] = second compound 3.16 µM, first compound 0.01 µM
[19] = second compound 3.16 µM, first compound 0.0316 µM
[20] = second compound 3.16 µM, first compound 0.1 µM
[21] = second compound 10 µM, first compound 0.00316 µM
[22] = second compound 10 µM, first compound 0.01 µM
[23] = second compound 10 µM, first compound 0.0316 µM
[24] = second compound 10 µM, first compound 0.1 µM
[25] = second compound 0.0316 µM, first compound 0.316 µM
[26] = second compound 0.0316 µM, first compound 1 µM
[27] = second compound 0.1 µM, first compound 0.316 µM
[28] = second compound 0.1 µM, first compound 1 µM
[29] = second compound 0.316 µM, first compound 0.316 µM
[30] = second compound 0.316 µM, first compound 1 µM
[31] = second compound 1 µM, first compound 0.316 µM
[32] = second compound 1 µM, first compound 1 µM
[33] = second compound 3.16 µM, first compound 0.316 µM
[34] = second compound 3.16 µM, first compound 1 µM
[35] = second compound 10 µM, first compound 0.316 µM
[36] = second compound 10 µM, first compound 1 µM
[37] = second compound 0.0316 µM, first compound 3.16 µM
[38] = second compound 0.0316 µM, first compound 10 µM
[39] = second compound 0.1 µM, first compound 3.16 µM
[40] = second compound 0.1 µM, first compound 10 µM
[41] = second compound 0.316 µM, first compound 3.16 µM
[42] = second compound 0.316 µM, first compound 10 µM
[43] = second compound 1 µM, first compound 3.16 µM
[44] = second compound 1 µM, first compound 10 µM
[45] = second compound 3.16 µM, first compound 3.16 µM
[46] = second compound 3.16 µM, first compound 10 µM
[47] = second compound 10 µM, first compound 3.16 µM
[48] = second compound 10 µM, first compound 10 µM
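Also: spheroids exposed to compounds for 7 days before readout.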
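For viability, T/C in this document: 100% = DMSO vehicle control viability.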

Structure (SMILES): CC[C@@]1(O)C(=O)OCc2c1cc1n(c2=O)Cc2cc3c(CN(C)C)c(O)ccc3nc2-1 + COC1C(OC(N)=O)C(O)C(Oc2ccc3c(O)c(NC(=O)c4ccc(O)c(CC=C(C)C)c4)c(=O)oc3c2C)OC1(C)C
- IC50 (second compound 0.0316 µM): > 100 nM
- IC50 (second compound 0.1 µM): > 100 nM
- IC50 (second compound 0.316 µM): > 100 nM
- IC50 (second compound 1 µM): > 100 nM
- IC50 (second compound 3.16 µM): > 100 nM
- IC50 (second compound 10 µM): > 100 nM
- viability, T/C (second compound 0.0316 µM, first compound 0.000316 µM): 103%
- viability, T/C (second compound 0.0316 µM, first compound 0.001 µM): 103%
- viability, T/C [1]: 106%
- viability, T/C [2]: 103%
- viability, T/C [3]: 100%
- viability, T/C [4]: 87.3%
- viability, T/C (second compound 0.1 µM, first compound 0.000316 µM): 105%
- viability, T/C (second compound 0.1 µM, first compound 0.001 µM): 125%
- viability, T/C [5]: 98.3%
- viability, T/C [6]: 79.6%
- viability, T/C [7]: 86.4%
- viability, T/C [8]: 71.4%
- viability, T/C (second compound 0.316 µM, first compound 0.000316 µM): 110%
- viability, T/C (second compound 0.316 µM, first compound 0.001 µM): 110%
- viability, T/C [9]: 107%
- viability, T/C [10]: 100%
- viability, T/C [11]: 102%
- viability, T/C [12]: 84.5%
- viability, T/C (second compound 1 µM, first compound 0.000316 µM): 82.4%
- viability, T/C (second compound 1 µM, first compound 0.001 µM): 106%
- viability, T/C [13]: 97.7%
- viability, T/C [14]: 93.2%
- viability, T/C [15]: 75.7%
- viability, T/C [16]: 86.4%
- viability, T/C (second compound 3.16 µM, first compound 0.000316 µM): 93.9%
- viability, T/C (second compound 3.16 µM, first compound 0.001 µM): 107%
- viability, T/C [17]: 104%
- viability, T/C [18]: 112%
- viability, T/C [19]: 98.6%
- viability, T/C [20]: 87.7%
- viability, T/C (second compound 10 µM, first compound 0.000316 µM): 92.8%
- viability, T/C (second compound 10 µM, first compound 0.001 µM): 114%
- viability, T/C [21]: 99.1%
- viability, T/C [22]: 95.3%
- viability, T/C [23]: 110%
- viability, T/C [24]: 88.5%

Structure (SMILES): CCc1c2c(nc3ccc(O)cc13)-c1cc3c(c(=O)n1C2)COC(=O)[C@]3(O)CC + COC1C(OC(N)=O)C(O)C(Oc2ccc3c(O)c(NC(=O)c4ccc(O)c(CC=C(C)C)c4)c(=O)oc3c2C)OC1(C)C
- IC50 (second compound 0.0316 µM): 69.1 nM
- IC50 (second compound 0.1 µM): 55.1 nM
- IC50 (second compound 0.316 µM): 59.2 nM
- IC50 (second compound 1 µM): 67.5 nM
- IC50 (second compound 3.16 µM): 99.9 nM
- IC50 (second compound 10 µM): 59.2 nM
- viability, T/C [1]: 102%
- viability, T/C [2]: 81%
- viability, T/C [3]: 54.5%
- viability, T/C [4]: 45.3%
- viability, T/C [25]: 41.4%
- viability, T/C [26]: 25.9%
- viability, T/C [5]: 106%
- viability, T/C [6]: 88.4%
- viability, T/C [7]: 52.9%
- viability, T/C [8]: 44%
- viability, T/C [27]: 29.1%
- viability, T/C [28]: 20.2%
- viability, T/C [9]: 83.3%
- viability, T/C [10]: 74.9%
- viability, T/C [11]: 47.8%
- viability, T/C [12]: 48.9%
- viability, T/C [29]: 34.9%
- viability, T/C [30]: 20.9%
- viability, T/C [13]: 92.2%
- viability, T/C [14]: 81%
- viability, T/C [15]: 62.2%
- viability, T/C [16]: 41.9%
- viability, T/C [31]: 33.6%
- viability, T/C [32]: 22.6%
- viability, T/C [17]: 84.1%
- viability, T/C [18]: 66.6%
- viability, T/C [19]: 61.1%
- viability, T/C [20]: 54.3%
- viability, T/C [33]: 37.1%
- viability, T/C [34]: 19.2%
- viability, T/C [21]: 104%
- viability, T/C [22]: 82.3%
- viability, T/C [23]: 53.3%
- viability, T/C [24]: 46.1%
- viability, T/C [35]: 30.6%
- viability, T/C [36]: 19.9%

Structure (SMILES): Nc1ccn(C2OC(CO)C(O)C2(F)F)c(=O)n1 (stereo not drawn) + COC1C(OC(N)=O)C(O)C(Oc2ccc3c(O)c(NC(=O)c4ccc(O)c(CC=C(C)C)c4)c(=O)oc3c2C)OC1(C)C
- IC50 (second compound 0.0316 µM): 553 nM
- IC50 (second compound 0.1 µM): 898 nM
- IC50 (second compound 0.316 µM): 1920 nM
- IC50 (second compound 1 µM): 860 nM
- IC50 (second compound 3.16 µM): 736 nM
- IC50 (second compound 10 µM): 1110 nM
- viability, T/C [3]: 77.8%
- viability, T/C [4]: 56%
- viability, T/C [25]: 56.4%
- viability, T/C [26]: 46.9%
- viability, T/C [37]: 47.6%
- viability, T/C [38]: 36.6%
- viability, T/C [7]: 67.6%
- viability, T/C [8]: 60.5%
- viability, T/C [27]: 57.5%
- viability, T/C [28]: 46.7%
- viability, T/C [39]: 45.5%
- viability, T/C [40]: 42%
- viability, T/C [11]: 65.1%
- viability, T/C [12]: 70.8%
- viability, T/C [29]: 62%
- viability, T/C [30]: 54.1%
- viability, T/C [41]: 46.9%
- viability, T/C [42]: 33%
- viability, T/C [15]: 72.8%
- viability, T/C [16]: 69.9%
- viability, T/C [31]: 53.7%
- viability, T/C [32]: 48.5%
- viability, T/C [43]: 43.4%
- viability, T/C [44]: 35.5%
- viability, T/C [19]: 72.1%
- viability, T/C [20]: 63.5%
- viability, T/C [33]: 58%
- viability, T/C [34]: 48%
- viability, T/C [45]: 39.1%
- viability, T/C [46]: 37.9%
- viability, T/C [23]: 69.4%
- viability, T/C [24]: 75.7%
- viability, T/C [35]: 59.7%
- viability, T/C [36]: 53.3%
- viability, T/C [47]: 38.2%
- viability, T/C [48]: 34.2%

Structure (SMILES): O=C(c1cc(Cc2n[nH]c(=O)c3ccccc23)ccc1F)N1CCN(C(=O)C2CC2)CC1 + COC1C(OC(N)=O)C(O)C(Oc2ccc3c(O)c(NC(=O)c4ccc(O)c(CC=C(C)C)c4)c(=O)oc3c2C)OC1(C)C
- IC50 (second compound 0.0316 µM): > 10000 nM
- IC50 (second compound 0.1 µM): > 10000 nM
- IC50 (second compound 0.316 µM): > 10000 nM
- IC50 (second compound 1 µM): > 10000 nM
- IC50 (second compound 3.16 µM): > 10000 nM
- IC50 (second compound 10 µM): > 10000 nM
- viability, T/C [3]: 99.2%
- viability, T/C [4]: 96.8%
- viability, T/C [25]: 90.2%
- viability, T/C [26]: 92.7%
- viability, T/C [37]: 96.9%
- viability, T/C [38]: 95.5%
- viability, T/C [7]: 99.2%
- viability, T/C [8]: 101%
- viability, T/C [27]: 100%
- viability, T/C [28]: 82.1%
- viability, T/C [39]: 85.5%
- viability, T/C [40]: 85.6%
- viability, T/C [11]: 113%
- viability, T/C [12]: 109%
- viability, T/C [29]: 81.6%
- viability, T/C [30]: 92.5%
- viability, T/C [41]: 113%
- viability, T/C [42]: 108%
- viability, T/C [15]: 93.9%
- viability, T/C [16]: 98.1%
- viability, T/C [31]: 78.2%
- viability, T/C [32]: 93.7%
- viability, T/C [43]: 73.5%
- viability, T/C [44]: 101%
- viability, T/C [19]: 94.5%
- viability, T/C [20]: 103%
- viability, T/C [33]: 104%
- viability, T/C [34]: 85%
- viability, T/C [45]: 109%
- viability, T/C [46]: 113%
- viability, T/C [23]: 82.4%
- viability, T/C [24]: 94.7%
- viability, T/C [35]: 106%
- viability, T/C [36]: 78.4%
- viability, T/C [47]: 112%
- viability, T/C [48]: 103%
